≈ marks a conversion by molar mass, not a printed value. Where two headings read alike, the source gives them in different places.
What was measured:
human albumin (HSA) = human albumin (HSA) (Homo sapiens (Human), UniProt P02768); assay: HSA binding analysis using a chiral HSA column; type: in vitro ADME; details: for HSA Binding (%): AB%=[k′/(k′+1)]*100, pH 7.0; for HSA Binding (%) / Conclusion (HSA binding class): chiral HSA column; for k′: capacity factor, k′=(Tr−T0)/T0; for Tr: retention time on chiral HSA column, pH 7.0, 37° C.; for affinity in vitro to human albumin: text summary of Table 7
Excerpt: The test system used in this analysis was an HSA chiral column.
The relationship between the retention time (Tr) and percentage of albumin binding (AB %) depended on the dead time (TO) and the capacity factor (k′): AB%=[k′/(k′+1)]*100
HSA binding was classified as follows:
75%≦AB<90%: Moderate binding

MSSA (IHMA #555189) = assay: MIC determination using susceptibility method (broth microdilution); type: cell-based; details: Staphylococcus aureus, read-out: MIC (μg/ml) MSSA (IHMA #555189)
Protocol: (§1) Minimum inhibitory concentrations (MICs) were determined by broth microdilution according to CLSI guidelines (CLSI, M100-20^1, M7-A8^2, M27-A3^3). The compounds were tested in the range from […]. Colonies were taken directly from a second-pass culture plate and prepared to a suspension equivalent to the 0.5 McFarland standard using normal saline. […] The panels were incubated at 35° C. for 16 to 20 hours before reading the MIC endpoints. The compounds of Examples 12, 29, 59, 63 and 66-71 were dissolved in DMSO to make the initial solutions of 5120 μg/ml. These solutions were diluted 1:10 in sterile water to a stock solution of 512 μg/ml. The stock solutions were further diluted into the appropriate broth medium for the sequential dilutions used in the broth microdilution panels. S. pneumoniae was tested in Mueller Hinton (MH) broth with 3% lysed horse blood and C. albicans was tested in RPMI-1640 medium. All other organisms were tested in MH broth.

C. albicans (ATCC 90028) = assay: as above; type: cell-based; details: Candida albicans
Protocol: as §1

[1] = system: S. pneumoniae (ATCC 49619); assay: as above; type: cell-based; details: Streptococcus pneumoniae
Protocol: as §1

S. aureus ATCC 29213 = assay: as above; type: cell-based; details: Staphylococcus aureus
Protocol: as §1

E. faecalis (ATCC 29212) = assay: as above; type: cell-based; details: Enterococcus faecalis
Protocol: as §1

E. coli (ATCC 25922) = assay: as above; type: cell-based; details: Escherichia coli
Protocol: as §1

MRSA (IHMA #510059) = assay: as above; type: cell-based; details: Staphylococcus aureus, read-out: MIC (μg/ml) MRSA (IHMA #510059)
Protocol: as §1

[2] = ATCC90028, read-out: MIC (μg/ml) C. albicans (ATCC 90028)
[3] = ATCC49619, read-out: MIC (μg/ml) S. pneumoniae (ATCC 49619)
[4] = ATCC29213, read-out: MIC (μg/ml) S. aureus ATCC 29213
[5] = ATCC29212, read-out: MIC (μg/ml) E. faecalis (ATCC 29212)
[6] = ATCC25922, read-out: MIC (μg/ml) E. coli (ATCC 25922)
[7] = ATCC90028, Broth microdilution, RPMI-1640 medium, read-out: MIC (μg/ml) C. albicans (ATCC 90028)
[8] = ATCC49619, Broth microdilution, MH broth with 3% lysed horse blood, read-out: MIC (μg/ml) S. pneumoniae (ATCC 49619)
[9] = ATCC29213, Broth microdilution, MH broth, read-out: MIC (μg/ml) S. aureus ATCC 29213
[10] = ATCC29212, Broth microdilution, MH broth, read-out: MIC (μg/ml) E. faecalis (ATCC 29212)
[11] = ATCC25922, Broth microdilution, MH broth, read-out: MIC (μg/ml) E. coli (ATCC 25922)

human albumin (HSA), sequence (P02768 25-609): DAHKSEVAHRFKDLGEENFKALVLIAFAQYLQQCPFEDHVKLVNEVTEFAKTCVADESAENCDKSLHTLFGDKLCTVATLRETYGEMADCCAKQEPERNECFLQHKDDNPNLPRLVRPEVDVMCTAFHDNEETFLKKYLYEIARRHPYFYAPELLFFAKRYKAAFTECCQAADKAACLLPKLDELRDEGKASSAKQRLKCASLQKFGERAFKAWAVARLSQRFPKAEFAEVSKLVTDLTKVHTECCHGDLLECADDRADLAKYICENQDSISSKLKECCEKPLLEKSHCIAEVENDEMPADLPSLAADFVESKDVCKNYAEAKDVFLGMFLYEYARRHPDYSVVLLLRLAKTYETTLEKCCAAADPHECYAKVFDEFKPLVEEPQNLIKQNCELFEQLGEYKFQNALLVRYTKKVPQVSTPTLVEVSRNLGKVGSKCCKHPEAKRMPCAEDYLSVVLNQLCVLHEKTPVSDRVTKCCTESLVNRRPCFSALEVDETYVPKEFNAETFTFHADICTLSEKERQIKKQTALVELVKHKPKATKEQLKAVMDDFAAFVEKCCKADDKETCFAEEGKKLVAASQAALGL

Row | MIC (MSSA (IHMA #555189); Broth microdilution, MH broth) [µg/mL] | MIC (C. albicans (ATCC 90028); [7]) [µg/mL] | MIC [1, 8] [µg/mL] | MIC (S. aureus ATCC 29213; [9]) [µg/mL] | MIC (E. faecalis (ATCC 29212); [10]) [µg/mL] | MIC (E. coli (ATCC 25922); [11]) [µg/mL] | MIC (MRSA (IHMA #510059); Broth microdilution, MH broth) [µg/mL] | Compound | HSA Binding (%) (human albumin (HSA)) | k′ (human albumin (HSA)) | Conclusion (HSA binding class) (human albumin (HSA)) | Tr (human albumin (HSA)) [min] | affinity in vitro to human albumin (human albumin (HSA)) | MIC (MSSA (IHMA #555189)) [µg/mL] | MIC (C. albicans (ATCC 90028); [2]) [µg/mL] | MIC [1, 3] [µg/mL] | MIC (S. aureus ATCC 29213; [4]) [µg/mL] | MIC (E. faecalis (ATCC 29212); [5]) [µg/mL] | MIC (E. coli (ATCC 25922); [6]) [µg/mL] | MIC (MRSA (IHMA #510059)) [µg/mL]
1 | – | – | – | – | – | – | – | O=C1CCc2cc(/C=C/C(=O)N3CC(OCCc4cccs4)C3)cnc2N1 [Example 29, (E)-6-(3-Oxo-3-(3-(2-(thiophen-2-yl)ethoxy)azetidin-1-yl)prop-1-enyl)-3,4-dihydro-1,8-naphthyridin-2(1H)-one] | 55.7 | 1.259 | Low binding (AB<75%: Low binding) | 1.743 | low affinity | 0.5 (≈ 1.3 µM) | > 128 | > 128 | 0.5 (≈ 1.3 µM) | > 128 | > 128 | 0.5 (≈ 1.3 µM)
2 | – | – | – | – | – | – | – | O=C1CCc2cc(/C=C/C(=O)N3CC(c4cc5ccccc5o4)C3)cnc2N1 [Example 59, (E)-6-(3-(3-(Benzofuran-2-yl)azetidin-1-yl)-3-oxoprop-1-enyl)-3,4-dihydro-1,8-naphthyridin-2(1H)-one] | 82.4 | 4.678 | Moderate | 4.378 | moderate affinity | 0.06 (≈ 0.161 µM) | 128 (≈ 343 µM) | 32 (≈ 85.7 µM) | 0.06 (≈ 0.161 µM) | 64 (≈ 171 µM) | 64 (≈ 171 µM) | 0.06 (≈ 0.161 µM)
3 | – | – | – | – | – | – | – | CCCCOC1CN(C(=O)/C=C/c2cnc3c(c2)CC2(CCN(C)CC2)C(=O)N3)C1 [Example 63, (E)-6-(3-(3-Butoxyazetidin-1-yl)-3-oxoprop-1-enyl)-1′-methyl-1H-spiro[[1,8]naphthyridine-3,4′-piperidin]-2(4H)-one] | 56.3 | 1.288 | Low binding (AB<75%: Low binding) | 1.760 | low affinity | 1 (≈ 2.42 µM) | 128 (≈ 310 µM) | 64 (≈ 155 µM) | 1 (≈ 2.42 µM) | 64 (≈ 155 µM) | 64 (≈ 155 µM) | 1 (≈ 2.42 µM)
4 | – | – | – | – | – | – | – | Cc1c(C2CN(C(=O)/C=C/c3cnc4c(c3)CCC(=O)N4)C2)oc2ccccc12 [Example 67, (E)-6-(3-(3-(3-Methylbenzofuran-2-yl)azetidin-1-yl)-3-oxoprop-1-enyl)-3,4-dihydro-1,8-naphthyridin-2(1H)-one] | 89.3 | 8.360 | Moderate | 7.229 | moderate affinity | 0.06 (≈ 0.155 µM) | > 128 | 128 (≈ 330 µM) | 0.06 (≈ 0.155 µM) | > 128 | > 128 | 0.06 (≈ 0.155 µM)
5 | – | – | – | – | – | – | – | Cc1c(C2CN(C(=O)/C=C/c3cnc4c(c3)CC3(CCN(C)CC3)C(=O)N4)C2)oc2ccccc12 [Example 68, (E)-1′-Methyl-6-(3-(3-(3-methylbenzofuran-2-yl)azetidin-1-yl)-3-oxoprop-1-enyl)-1H-spiro[[1,8]naphthyridine-3,4′-piperidin]-2(4H)-one] | 91.8 | 11.216 | High binding (AB≧90%: High binding) | 9.414 | high affinity | 0.5 (≈ 1.06 µM) | > 128 | 128 (≈ 272 µM) | 0.5 (≈ 1.06 µM) | > 128 | > 128 | 0.5 (≈ 1.06 µM)
6 | – | – | – | – | – | – | – | CN1CCC2(CC1)Cc1cc(/C=C/C(=O)N3CC(c4cc5ccccc5o4)C3)cnc1NC2=O [Example 69, (E)-6-(3-(3-(Benzofuran-2-yl)azetidin-1-yl)-3-oxoprop-1-en-1-yl)-1′-methyl-1H-spiro[[1,8]naphthyridine-3,4′-piperidin]-2(4H)-one] | 88.5 | 7.730 | Moderate | 6.734 | moderate affinity | 1 (≈ 2.19 µM) | > 128 | 128 (≈ 280 µM) | 1 (≈ 2.19 µM) | > 128 | > 128 | 1 (≈ 2.19 µM)
7 | 0.5 (≈ 1.4 µM) | > 128 | > 128 | 0.5 (≈ 1.4 µM) | > 128 | > 128 | 0.5 (≈ 1.4 µM) | CCCO/N=C(\C)C1CN(C(=O)/C=C/c2cnc3c(c2)CCC(=O)N3)C1 [Example 70, 6-((E)-3-Oxo-3-(3-((E)-1-(propoxyimino)ethyl)azetidin-1-yl)prop-1-enyl)-3,4-dihydro-1,8-naphthyridin-2(1H)-one] | 36.7 | 0.580 | Low binding (AB<75%: Low binding) | 1.219 | low affinity | – | – | – | – | – | – | –
8 | 8 (≈ 22.4 µM) | > 128 | 128 (≈ 359 µM) | 4 (≈ 11.2 µM) | > 128 | > 128 | 4 (≈ 11.2 µM) | CCCO/N=C(/C)C1CN(C(=O)/C=C/c2cnc3c(c2)CCC(=O)N3)C1 [Example 71, 6-((E)-3-Oxo-3-(3-((Z)-1-(propoxyimino)ethyl)azetidin-1-yl)prop-1-enyl)-3,4-dihydro-1,8-naphthyridin-2(1H)-one] | 28.8 | 0.404 | Low binding (AB<75%: Low binding) | 1.084 | low affinity | – | – | – | – | – | – | –

Reference: patent US8846711B2, “Heterocyclic acrylamides and their use as pharmaceuticals” (Fab Pharma S.A.S., priority 2009, dated 2014)
